Legend:
[1] = Assay C: metabolic stability in human liver microsomes (Human MST); assay type: in vitro ADME; conditions: pooled human liver microsomes, pH 7.6, 1 μM compound, 37° C., read-out: Human MST t1/2
Excerpt: Stability in human liver microsomes refers to the susceptibility of compounds to biotransformation in the context of selecting and/or designing drugs with favorable pharmacokinetic properties. The primary site of metabolism for many drugs is the liver. Human liver microsomes contain the cytochrome P450s (CYPs), and thus represent a model system for studying drug metabolization in vitro. Enhanced stability in human liver microsomes is associated with several advantages, including increased bioavailability and longer half-life, which can enable lower and less frequent dosing of patients. Thus, enhanced stability in human liver microsomes is a favorable characteristic for compounds that are to be used for drugs.
C. Assessment of Metabolic Stability in Human Liver Microsomes (Human MST)
The metabolic stability of the compounds according to the invention may be investigated as follows:
The metabolic degradation of the test compound is assayed at 37° C. with pooled human liver microsomes. The final incubation volume of 100 μL per time point contains TRIS buffer pH 7.6 at room temperature (0.1 M), MgCl2 (5 mM), microsomal protein (1 mg/mL) and the test compound at a final concentration of 1 μM. Following a short pre-incubation period at 37° C., the reactions are initiated by addition of beta-nicotinamide adenine dinucleotide phosphate, reduced form (NADPH, 1 mM), and terminated by transferring an aliquot into solvent after different time points. After centrifugation (10000 g, 5 min), an aliquot of the supernatant is assayed by LC-MS/MS for the amount of parent compound. The half-life (t1/2) is determined by the slope of the semi-logarithmic plot of the concentration-time profile.

human orexin 2 receptor = target: T1, human orexin 2 receptor (Homo sapiens, UniProt O43614); test: Assay B: OX2R IP1 (in vitro OX2R potency); assay type: cell-based; conditions: 0.5 nM Orexin A concentration
T1 construct: stably expressing the full-length human orexin 2 receptor and the aequorin photoprotein; expressed in transfected cells; host or cells: CHO-K1 (CHO-K1/hOx2), co-expressing aequorin
T1 sequence (O43614 1-444): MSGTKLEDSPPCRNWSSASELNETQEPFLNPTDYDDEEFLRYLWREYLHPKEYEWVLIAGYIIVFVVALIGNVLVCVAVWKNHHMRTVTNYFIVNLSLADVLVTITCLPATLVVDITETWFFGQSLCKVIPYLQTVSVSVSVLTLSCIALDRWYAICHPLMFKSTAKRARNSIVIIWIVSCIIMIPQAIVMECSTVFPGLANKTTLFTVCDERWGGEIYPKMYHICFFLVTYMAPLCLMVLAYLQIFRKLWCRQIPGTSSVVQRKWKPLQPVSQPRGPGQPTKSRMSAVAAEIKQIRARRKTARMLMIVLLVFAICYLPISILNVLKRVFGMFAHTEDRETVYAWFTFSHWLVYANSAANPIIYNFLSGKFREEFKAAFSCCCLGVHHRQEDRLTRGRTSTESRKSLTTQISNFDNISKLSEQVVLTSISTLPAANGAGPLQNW
Excerpt: Activation of the orexin receptors expressed in cell lines results in an increase in intracellular IP3 concentration. IP1, a downstream metabolite of IP3, accumulates in cells following receptor activation and is stable in the presence of LiCl. Using Homogeneous Time-Resolved Fluorescence technology with Lumi4-Tb cryptate (commercially available from Cisbio Bioassay.) and a suitable fluorescence plate reader. […] Chem. Genomics 2009, 3, 22-32. This technique is used to characterize pharmacological modification of the orexin receptors.
B. In Vitro Testing of OX2R Potency: OX2R IP1
IP1 measurements are performed in CHO-K1 cells stably expressing the full-length human orexin 2 receptor and the aequorin photoprotein. Cells are cultivated in Ham's nutrient mixture F12 medium with 10% fetal calf serum, in a 37° C., 95% humidity and 5% CO2 incubator. The CHO-K1/hOx2 cell mass is expanded to larger cell numbers. The cells are obtained as frozen cells in cryo-vials and stored until use at −150° C. The viability of the cells after thawing is >90%. In preparation for the assay, 24 hours before the assay, the cells are thawed at 37° C. and immediately diluted with cell culture medium. After centrifugation, the cell pellet is resuspended in medium and then distributed into the assay plates with a density of 5000 cells/25 μL per well. The plates are incubated for one hour at room temperature to reduce edge effects before they are incubated for 24 hours at 37° C./5% CO2. Compounds are prepared by a 8-point serial dilution in DMSO and a final dilution step into assay buffer (HBSS with 20 mM HEPES, 0.1% BSA and 50 mM LiCl, pH 7.4) to ensure a final DMSO concentration of 1% in the assay. On the day of the assay, cells in the plate are washed twice with 60 μL assay buffer (20 μL buffer remained in the wells after washing), followed by adding 5 μL per well of compounds diluted in assay buffer. After 15 minutes of incubation at room temperature 5 μL per well of Orexin A peptide (final concentration: 0.5 nM) dissolved in assay buffer is added to the assay plate. The assay plate is incubated for 60 minutes at 37° C. Then 5 μl per well of Anti-IP1-Cryptate Tb solution and 5 μl per well of IP1-d2 dilution are added to all well of the plate and the plate is incubated for a further 60 minutes light protected at room temperature. The emission at 615 nm and 665 nm (Excitation wavelength: 320 nm) are measured using an EnVision reader (PerkinElmer). The ratio between the emission at 665 nm and 615 is calculated by the reader.
8-point four parametric non-linear curve fitting and determination of IC50 values and Hill slopes is performed using a regular analysis software e.g. AssayExplorer (Accelrys). In order to establish an agonist concentration independent parameter, Kb values are calculated using the following equation: IC50/((2+(A/EC50)n)^1/n−1) (with A=concentration agonist, EC50=EC50 agonist, n=Hill slope agonist) (see P. Leff, I. G. Dougall, Trends Pharmacol. Sci. 1993, 14(4), 110-112).
Kb values from Assay A (OX1R) and Assay B (OX2R) can then provide a selectivity ratio which is independent of the agonist (Orexin A) concentration.

OX2R = target: T2, OX2R (Homo sapiens, UniProt O43614); conditions: cited from earlier work
T2 sequence (O43614 1-444): T1 sequence (O43614 1-444)

human MDR1 P-gp = test: Assay D: efflux in MDCK cells transfected with the human MDR1 gene; assay type: in vitro ADME, canine; conditions: dog; MDCK-MDR1 monolayers, pH 7.4, 37° C.; read-out: MDCK efflux ratio (BA/AB)
Protocol: The MDCK assay provides information on the potential of a compound to pass the blood brain barrier. Permeability measurements across polarized, confluent MDCK-MDR1 cell monolayers grown on permeable filter supports are used as an in vitro absorption model: apparent permeability coefficients (PE) of the compounds across the MDCK-MDR1 cell monolayers are measured (pH 7.4, 37° C.) in apical-to-basal (AB) and basal-to-apical (BA) transport direction. The AB permeability (PEAB) represents drug absorption from the blood into the brain and the BA permeability (PEBA) drug efflux from the brain back into the blood via both, passive permeability as well as active transport mechanisms mediated by efflux and uptake transporters that are expressed on the MDCK-MDR1 cells, predominantly by the overexpressed human MDR1 P-gp. Identical or similar permeabilities in both transport directions indicate passive permeation, vectorial permeability points to additional active transport mechanisms. Higher PEBA than PEAB (PEBA/PEAB>5) indicates the involvement of active efflux mediated by MDR1 P-gp, which might compromises the goal to achieve sufficient brain exposure. Therefore this assay provides valuable support for selection of compounds applicable for further in vivo testing. High permeability not limited by efflux at the blood brain barrier is a favourable characteristic for compounds that are to be used for drugs acting primarily in the CNS
D. Assessment of Efflux in Madin-Darby Canine Kidney (MDCK) Cells Transfected with the Human MDR1 Gene
Apparent permeability coefficients (PE) of the compounds across the MDCK-MDR1 cell monolayers are measured (pH 7.4, 37° C.) in apical-to-basal (AB) and basal-to-apical (BA) transport direction. AB permeability (PEAB) represents drug absorption from the blood into the brain and BA permeability (PEBA) drug efflux from the brain back into the blood via both passive permeability as well as active transport mechanisms mediated by efflux and uptake transporters that are expressed on the MDCK-MDR1 cells, predominantly by the overexpressed human MDR1 P-gp. The compounds are assigned to permeability/absorption classes by comparison of the AB permeabilities with the AB permeabilities of reference compounds with known in vitro permeability and oral absorption in the human. Identical or similar permeabilities in both transport directions indicate passive permeation, vectorial permeability points to additional active transport mechanisms. Higher PEBA than PEAB indicates the involvement of active efflux mediated by MDR1 P-gp. Active transport is concentration-dependently saturable.
MDCK-MDR1 cells (1-2×10e5 cells/1 cm2 area) are seeded on filter inserts (Costar transwell polycarbonate or PET filters, 0.4 μm pore size) and cultured (DMEM) for 7 days. Subsequently, the MDR1 expression is boosted by culturing the cells with 5 mM sodium butyrate in full medium for 2 days. Compounds are dissolved in appropriate solvent (like DMSO, 1-20 mM stock solutions). Stock solutions are diluted with HTP-4 buffer (128.13 mM NaCl, 5.36 mM KCl, 1 mM MgSO4, 1.8 mM CaCl2, 4.17 mM NaHCO3, 1.19 mM Na2HPO4×7H2O, 0.41 mM NaH2PO4×H2O, 15 mM HEPES, 20 mM glucose, 0.25% BSA, pH 7.4) to prepare the transport solutions (0.1-300 μM compound, final DMSO<=0.5%). The transport solution (TL) is applied to the apical or basolateral donor side for measuring A-B or B-A permeability (3 filter replicates), respectively. The receiver side contains the same buffer as the donor side. Samples are collected at the start and end of experiment from the donor and at various time intervals for up to 2 hours also from the receiver side for concentration measurement by HPLC-MS/MS or scintillation counting. Sampled receiver volumes are replaced with fresh receiver solution.

OX1R = target: T3, OX1R (Homo sapiens, UniProt O43613); conditions: cited from earlier work
T3 sequence (O43613 1-425): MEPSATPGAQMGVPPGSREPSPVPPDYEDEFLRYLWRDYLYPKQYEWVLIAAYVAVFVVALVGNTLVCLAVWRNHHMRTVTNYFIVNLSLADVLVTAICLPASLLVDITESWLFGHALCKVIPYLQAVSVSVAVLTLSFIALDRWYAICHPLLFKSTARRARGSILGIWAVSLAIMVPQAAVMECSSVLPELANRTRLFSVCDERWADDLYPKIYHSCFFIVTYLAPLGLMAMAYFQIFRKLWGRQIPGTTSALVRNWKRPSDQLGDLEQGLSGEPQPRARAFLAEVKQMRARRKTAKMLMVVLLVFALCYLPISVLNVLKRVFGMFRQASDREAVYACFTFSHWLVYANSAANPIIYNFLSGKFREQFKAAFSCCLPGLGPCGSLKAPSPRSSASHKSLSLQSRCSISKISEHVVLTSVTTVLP

[2] = as described in WO03/051872 (page 16-18)
[3] = corresponds to pKb described in WO03/051872

| SMILES | half-life at 1 μM [1] [h] | Kb (human orexin 2 receptor) [nM] | OX2R pKb (OX2R; [2]) | OX2R Kb (OX2R; [3]) [nM] | efflux ratio (human MDR1 P-gp) | OX1R pKb (OX1R; [2]) | OX1R Kb (OX1R; [3]) [nM] |
| --- | --- | --- | --- | --- | --- | --- | --- |
| CCN(C(=O)c1cccc(Cl)c1-n1nccn1)[C@@H](C)CNc1ncc(C(F)(F)F)cn1 [Example 3] | 1.4 | 6.27 |  |  |  |  |  |
| Cc1nc(C(=O)N(C)CCNc2ncc(Br)cn2)c(-c2ccc(F)cc2)s1 [Example 6 in WO03/051872] |  |  | <6.6 to 7.4 | >250 to 40 | 0.8 | 6.4 to 7.4 | 400 to 40 |
| CCN(C(=O)c1cc(F)cc(F)c1-n1nccn1)[C@@H](C)CNc1ncc(C(F)(F)F)cn1 [Example 6] | > 2 | 53.1 |  |  |  |  |  |

Reference: patent US9884854B2, “N-[(pyrimidinylamino)propanyl]-and N[(pyrazinylamino)proppanyl]arylcarboxamides” (Boehringer Ingelheim International GmbH, priority 2016, dated 2018)
